Where only a bound is given, the exact number is not on record here.

Data on 35 compounds can be found in patent US9359308B2, “Pyrazine kinase inhibitors” (Portola Pharmaceuticals, Inc., priority 2011, dated 2016).

This test deals with T1, full length active recombinant SYK enzyme (Homo sapiens, UniProt P43405).
T1 construct: full length active recombinant SYK enzyme (Millipore, Calif.); purchased Millipore
Kind of test: Inhibition of Syk tyrosine phosphorylation activity (LANCE TR-FRET kinase assay). It is filed as biochemical. The conditions noted are these: activity in the Syk assays, class symbols. In short, it runs like this: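 1 nM full-length active recombinant SYK phosphorylated 550 nM biotin-DEEDYESP-OH with 100 μM ATP in 50 mM Tris pH 7.5, 5 mM MgCl2, 1 mM DTT and 3% DMSO for 1 h at room temperature. After EDTA quench, Eu-anti-phosphotyrosine/SA-APC TR-FRET was read after 1 h. IC50s came from non-linear regression.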
Take `COC[C@@H](Nc1cnc(C(N)=O)c(Nc2cnc3cccnc3c2)n1)C(N)=O` [Example 410, (R)-3-(1,5-naphthyridin-3-ylamino)-5-(1-amino-3-methoxy-1-oxopropan-2-ylamino)pyrazine-2-carboxamide]: the IC50 was in the range of 10 to 100 nM.
As for `COc1cncc(Nc2nc(N[C@@H]3CCCC[C@@H]3N)cnc2C(N)=O)c1` [Example 309, 5-((1R,2S)-2-aminocyclohexylamino)-3-(5-methoxypyridin-3-ylamino)pyrazine-2-carboxamide], the figure is 1 to 10 nM; as for `CC[C@@H](Nc1cnc(C(N)=O)c(Nc2cnc(OC)c(C)c2)n1)C(N)=O` [Example 311, (R)-5-(1-amino-1-oxobutan-2-ylamino)-3-(6-methoxy-5-methylpyridin-3-ylamino)pyrazine-2-carboxamide], 10 to 100 nM.
As for `NC(=O)c1ncc(N[C@H]2CCCNC2)nc1Nc1ccc2ncccc2c1` [Example 58, (S)-5-(piperidin-3-ylamino)-3-(quinolin-6-ylamino)pyrazine-2-carboxamide], the figure is 10 to 100 nM; as for `Cc1cc(Nc2nc(N[C@@H]3CCCC[C@@H]3N)cnc2C(N)=O)ccc1N1CCOCC1` [Example 143, 5-((1R,2S)-2-aminocyclohexylamino)-3-(3-methyl-4-morpholinophenylamino)pyrazine-2-carboxamide], 1 to 10 nM.
As for `Cc1cccc(Nc2nc(N[C@@H]3CCNC3)cnc2C(N)=O)c1` [Example 116, (R)-5-(pyrrolidin-3-ylamino)-3-(m-tolylamino)pyrazine-2-carboxamide], the figure is 1 to 10 nM; as for `Cc1ccc(Nc2nc(N[C@H](CC(C)C)C(N)=O)cnc2C(N)=O)cc1` [Example 69, (R)-5-(1-amino-4-methyl-1-oxopentan-2-ylamino)-3-(p-tolylamino)pyrazine-2-carboxamide], 10 to 100 nM; as for `CC[C@@H](Nc1cnc(C(N)=O)c(Nc2ccc(N3CCC3)nc2)n1)C(N)=O` [Example 319, (R)-5-(1-amino-1-oxobutan-2-ylamino)-3-(6-(azetidin-1-yl)pyridin-3-ylamino)pyrazine-2-carboxamide], 10 to 100 nM.
As to `Cc1cc(Nc2nc(N[C@@H]3CCCC(F)(F)[C@@H]3N)cnc2C(N)=O)sn1` [Example 23, 5-((1R,2R)-2-amino-3,3-difluorocyclohexylamino)-3-(3-methylisothiazol-5-ylamino)pyrazine-2-carboxamide], the IC50 is 10 to 100 nM.
Turning to `C[C@@H](Nc1cnc(C(N)=O)c(Nc2cnc3ccccc3c2)n1)C(N)=O` [Example 5, (R)-5-(1-amino-1-oxopropan-2-ylamino)-3-(quinolin-3-ylamino)pyrazine-2-carboxamide], the IC50 lay in the range of 1 to 10 nM.
The figure for `NC(=O)c1ncc(N[C@@H]2CCCC[C@@H]2N)nc1Nc1cnn(CC2CC2)c1` [Example 219, 5-((1R,2S)-2-aminocyclohexylamino)-3-(1-(cyclopropylmethyl)-1H-pyrazol-4-ylamino)pyrazine-2-carboxamide] is 10 to 100 nM; for `CC[C@@H](Nc1cnc(C(N)=O)c(Nc2cnc3cccnc3c2)n1)C(N)=O` [Example 383, (R)-3-(1,5-naphthyridin-3-ylamino)-5-(1-amino-1-oxobutan-2-ylamino)pyrazine-2-carboxamide] it is 10 to 100 nM.
In the case of `Cc1cccc(Nc2nc(N[C@@H]3CCCC[C@@H]3N)cnc2C(N)=O)c1` [Example 61, 5-((1R,2S)-2-aminocyclohexylamino)-3-(m-tolylamino)pyrazine-2-carboxamide], the IC50 fell in the range of 100 to 1000 nM.
As for `NC(=O)c1ncc(N[C@@H]2CCOC[C@@H]2N)nc1Nc1cccc(-c2ncccn2)c1` [Example 82, 5-((3R,4R)-3-aminotetrahydro-2H-pyran-4-ylamino)-3-(3-(pyrimidin-2-yl)phenylamino)pyrazine-2-carboxamide], the figure is 1 to 10 nM.
As for `Cc1nsc(Nc2nc(N[C@@H]3CCCC[C@@H]3N)cnc2C(N)=O)c1-c1cncnc1` [Example 125, 5-(((1R,2S)-2-aminocyclohexyl)amino)-3-((3-methyl-4-(pyrimidin-5-yl)isothiazol-5-yl)amino)pyrazine-2-carboxamide], the figure is over 1000 nM; as for `NC(=O)c1ncc(NC2(C(N)=O)CC2)nc1Nc1cnc2ccccc2c1` [Example 362, 5-(1-carbamoylcyclopropylamino)-3-(quinolin-3-ylamino)pyrazine-2-carboxamide], 10 to 100 nM.
The figure for `NC(=O)c1ncc(N[C@@H]2CCCC[C@@H]2N)nc1NC1CCOCC1` [Example 35, 5-((1R,2S)-2-aminocyclohexylamino)-3-(tetrahydro-2H-pyran-4-ylamino)pyrazine-2-carboxamide] is over 1000 nM.
For the compound `NC(=O)c1ncc(N[C@H]2CCNC2)nc1Nc1ccc2ncccc2c1` [Example 108, (S)-5-(pyrrolidin-3-ylamino)-3-(quinolin-6-ylamino)pyrazine-2-carboxamide], the IC50 fell in the range of 10 to 100 nM.
As for `CC(C)C[C@@H](Nc1cnc(C(N)=O)c(Nc2ccc(N3CCC3)nc2)n1)C(N)=O` [Example 334, (R)-5-(1-amino-4-methyl-1-oxopentan-2-ylamino)-3-(6-(azetidin-1-yl)pyridin-3-ylamino)pyrazine-2-carboxamide], the figure is 10 to 100 nM; as for `Cc1cc(Nc2nc(N[C@@H](C(N)=O)C(C)C)cnc2C(N)=O)sn1` [Example 212, (R)-5-(1-amino-3-methyl-1-oxobutan-2-ylamino)-3-(3-methylisothiazol-5-ylamino)pyrazine-2-carboxamide], 1 to 10 nM.
The figure for `Cc1cc(Nc2nc(N[C@H](CC(C)C)C(N)=O)cnc2C(N)=O)ccn1` [Example 84, (R)-5-(1-amino-4-methyl-1-oxopentan-2-ylamino)-3-(2-methylpyridin-4-ylamino)pyrazine-2-carboxamide] is 1 to 10 nM.
As for `NC(=O)c1ncc(NC(CC(F)(F)F)C(N)=O)nc1Nc1ccc2ncccc2c1` (centres unmarked) [Example 6, 5-(1-amino-4,4,4-trifluoro-1-oxobutan-2-ylamino)-3-(quinolin-6-ylamino)pyrazine-2-carboxamide], the figure is 1 to 10 nM.
`NC(=O)c1ncc(N[C@H](Cc2ccncc2)C(N)=O)nc1Nc1ccc2ncccc2c1` [Example 361, (R)-5-(1-amino-1-oxo-3-(pyridin-4-yl)propan-2-ylamino)-3-(quinolin-6-ylamino)pyrazine-2-carboxamide]: the IC50 fell in the range of 10 to 100 nM.
Turning to `NC(=O)c1ncc(N[C@@H]2CCCC[C@@H]2N)nc1Nc1ccc(N2CCOCC2=O)cc1` [Example 442, 5-(((1R,2S)-2-aminocyclohexyl)amino)-3-((4-(3-oxomorpholino)phenyl)amino)pyrazine-2-carboxamide], the IC50 was in the range of 10 to 100 nM.
The figure for `CC[C@@H](Nc1cnc(C(N)=O)c(Nc2snc3ccsc23)n1)C(N)=O` [Example 268, (R)-5-(1-amino-1-oxobutan-2-ylamino)-3-(thieno[3,2-c]isothiazol-3-ylamino)pyrazine-2-carboxamide] is 1 to 10 nM.
As for `NC(=O)c1ncc(N[C@@H](C(N)=O)C2CC2)nc1Nc1ccc2ncccc2c1` [Example 76, (R)-5-(2-amino-1-cyclopropyl-2-oxoethylamino)-3-(quinolin-6-ylamino)pyrazine-2-carboxamide], the figure is 1 to 10 nM.
Consider `CC[C@@H](Nc1cnc(C(N)=O)c(Nc2ccc(C(=O)N3CCC3)nc2)n1)C(N)=O` [Example 300, (R)-5-(1-amino-1-oxobutan-2-ylamino)-3-(6-(azetidine-1-carbonyl)pyridin-3-ylamino)pyrazine-2-carboxamide], for which the IC50 is 10 to 100 nM.
The figure for `CC(C)[C@@H](Nc1cnc(C(N)=O)c(Nc2cnc3ccccc3c2)n1)C(N)=O` [Example 66, (R)-5-(1-amino-3-methyl-1-oxobutan-2-ylamino)-3-(quinolin-3-ylamino)pyrazine-2-carboxamide] is 1 to 10 nM; for `CC[C@@H](Nc1cnc(C(N)=O)c(Nc2cc(CO)ns2)n1)C(N)=O` [Example 251, (R)-5-(1-amino-1-oxobutan-2-ylamino)-3-(3-(hydroxymethyl)isothiazol-5-ylamino)pyrazine-2-carboxamide] it is 10 to 100 nM.
As for `CC[C@@H](Nc1cnc(C(N)=O)c(Nc2cc(C)cc(C)c2)n1)C(N)=O` [Example 77, (R)-5-(1-amino-1-oxobutan-2-ylamino)-3-(3,5-dimethylphenylamino)pyrazine-2-carboxamide], the figure is 1 to 10 nM.
As for `CN1C(=O)COc2ccc(Nc3nc(N[C@@H]4CCCC[C@@H]4N)cnc3C(N)=O)cc21` [Example 207, 5-((1R,2S)-2-aminocyclohexylamino)-3-(4-methyl-3-oxo-3,4-dihydro-2H-benzo[b][1,4]oxazin-6-ylamino)pyrazine-2-carboxamide], the figure is 1 to 10 nM; as for `CC(C)[C@@H](Nc1cnc(C(N)=O)c(Nc2ccc3c(c2)OCO3)n1)C(N)=O` [Example 146, (R)-5-(1-amino-3-methyl-1-oxobutan-2-ylamino)-3-(benzo[d][1,3]dioxol-5-ylamino)pyrazine-2-carboxamide], 100 to 1000 nM; as for `NC(=O)c1ncc(N[C@@H]2CCCC(F)(F)[C@@H]2N)nc1Nc1ccc2c(c1)CCOC2` [Example 453, 5-(((1R,2R)-2-amino-3,3-difluorocyclohexyl)amino)-3-(isochroman-6-ylamino)pyrazine-2-carboxamide], 1 to 10 nM.
For `CC(C)C[C@@H](Nc1cnc(C(N)=O)c(Nc2ccc(C(F)(F)F)nc2)n1)C(N)=O` [Example 85, (R)-5-(1-amino-4-methyl-1-oxopentan-2-ylamino)-3-(6-(trifluoromethyl)pyridin-3-ylamino)pyrazine-2-carboxamide], the IC50 fell in the range of 10 to 100 nM.
As for `NC(=O)c1ncc(N[C@@H]2CCCC(F)(F)[C@@H]2N)nc1Nc1cccc(F)c1` [Example 372, 5-((1R,2R)-2-amino-3,3-difluorocyclohexylamino)-3-(3-fluorophenylamino)pyrazine-2-carboxamide], the figure is 10 to 100 nM.
